Assay results taken from patent US20240252677A1, “ONE-COMPONENT DELIVERY SYSTEM FOR NUCLEIC ACIDS” (The Trustees of the University of Pennsylvania, priority 2021, published 2024).

Key:
[1] = system: HEK293T cells; test: In vitro Luc-mRNA transfection, luciferase luminescence expression in HEK293T cells; type: cell-based, human; design: unit not given here
Procedure: In Vitro Transfection Activity of DNPs in Human Embrionic Kidney (HEK) 293T Cells: HEK293T cells were seeded into 96-well plates (20,000 cells/well/200 μL) and cultured for 24 h at 37° C. in 5% CO2 complete cell culture media. Screening experiments were performed with nonoptimized DNPs containing naked nucleoside-modified mRNA (Karikó, et al., Immunity 2005, 23, 165-175; Pardi, et al., Methods Mol. Biol. 2013, 969, 29-42), of molar mass 664,341 encoding firefly luciferase (mRNA-Luc). A constant concentration of mRNA-Luc of 125 ng/well was used. The transIT (TransIT-mRNA transfection Kit from Mirus Bio) and MC3-based LNPs (MC3: DLin-MC3-DMA, which is the FDA approved LNP for mRNA delivery) were used as positive controls for cell transfection at a concentration of mRNA-Luc of 125 ng/well, identical to that of the tested DNPs. Subsequently cells were cultured for 24 h, the medium was aspirated under reduced pressure by a glass pipette and cells were lysed with 30 μL/well of cell culture lysis reagent (Promega). The luminescence intensity corresponding to the luciferase protein expressed was characterized and analyzed.
In vitro mRNA Delivery: Human embryonic kidney (HEK) 293T cells (American Type Culture Collection) were cultured in Dulbecco's modified Eagle's medium (DMEM) supplemented with 10% inactivated fetal bovine serum (FBS) (Gemini Bio-Products), 2 mM L-glutamine and 100 U/mL penicillin/streptomycin (Life Technologies) (complete medium). For in vitro screening experiments, HEK293T cells were seeded into 96-well plates (20,000 cells/well/200 μL) and cultured for 24 h in at 37° C. and 5% CO2 in complete media. Cell were transfected with IAJDs with encapsulated naked nucleoside-modified mRNA encoding firefly luciferase (mRNA-Luc) with fixed concentration of mRNA-Luc, 125 ng per well. The transIT (TransIT®-mRNA Transfection Kit, Mirus Bio) was used as a positive control for cell transfection, accordingly per manufacturer protocol and added to cells at the concentration of mRNA-Luc, 125 ng per well, the same as for tested particles. Cells were further cultured for 24 h, then medium was aspirated, and cells were lysed with 30 μL/well of cell culture lysis reagent (Promega). For the characterization of luminescence intensity, 2.5 μL of the lysed cells was mixed with 10 μL of luciferase assay substrate and luminescence was analyzed using a MiniLumat LB 9506 luminometer (Berthold/EG&G; Wallac).
Luminescence characterization for in vitro transfection experiments was performed by determining the luminescence intensity for in vitro Luc-mRNA transfection experiments using a MiniLumat LB 9506 luminometer (Berthold/EG&G; Wallac).
For in vitro Luc-mRNA transfection screening experiments, human embryonic kidney 293 cells (HEK 293) were seeded into 96-well plates (20,000 cells/well/200 μL) and cultured for 18-20 hours at 37° C., 5% CO2 in complete Dulbecco's modified Eagle's medium (DMEM) supplemented with 2 mM L-glutamine (Life Technologies), 100 U/mL penicillin/streptomycin (Invitrogen) and 10% fetal bovine serum (FBS, Gemini Bio-Products). Cells were transfected with DNPs with encapsulated naked nucleoside-modified mRNA encoding firefly luciferase (Luc-mRNA) at constant concentration of Luc-mRNA, 125 ng per well. Luc-mRNA complexed with TransIT (TransIT®-mRNA Transfection Kit, Mirus Bio) or encapsulated in FDA approved MC3-based LNPs were used as positive controls for cell transfection, at the concentration of Luc-mRNA of 125 ng per well, the same as for tested DNPs. After transfection cells were further cultured at 37° C., 5% CO2 for 18-20 hours, then medium was aspirated and cells were lysed with luciferase cell culture lysis reagent (30 μL/well) (Promega, Madison, WI). […]

[2] = system: lung; test: In vivo mRNA delivery, IVIS imaging of organs: lung; design: species or system mice; key to Organs with luminescence: lung: strong: Strong meant the luminescence intensity in that organ was relatively high, compared to other organs; weak: Weak meant the luminescence intensity in that organ was relatively low, compared to other organs; details: for Organs with luminescence: lung (weak/strong): Table 14
Procedure: The exposure time was 1 min.
Tissue luminescence signal was measured on the IVIS imaging system using an exposure time of 60 seconds using medium binning (binning=8) to ensure that the signal obtained was within operative detection range. […] Bioluminescence imaging was performed as described above.
Tissue luminescence signal was measured on the IVIS imaging system using a certain exposure time (60, 30 or 15 seconds) and medium binning (binning=8) to ensure that the signal obtained was within operative detection range.

[3] = HEK293T cells, Luc-mRNA 125 ng/well, n=3

| Molecule | Luminescence [1, 3] | Organs with luminescence: lung (weak/strong) ([2]; imaging 5 h after injection) | Organs with luminescence: lung (weak/strong) ([2]; imaging 6 h after injection) | further results |
| --- | --- | --- | --- | --- |
| CCCCCCCCCCCCOc1cc(COC(=O)CCCN2CCN(CCO)CC2)cc(OCCCCCCCCCCCC)c1 [IAJD 71, 3,5-Bis(dodecyloxy)benzyl 4-(4-(2-hydroxyethyl)piperazin-1-yl)butanoate] | 473,548 | Lung (weak), |  | Organs with luminescence: lung ([2]; Table 17, mice, IVIS, 4-6 h after injection, intensity relative to other organs): Lung (weak), |
| CCCCCCCCCCCCCCOc1cc(COC(=O)CCCN2CCN(C)CC2)cc(OCCCCCCCCCCCCCC)c1 [IAJD 74, 3,5-Bis(tetradecyloxy)benzyl 4-(4-methylpiperazin-1-yl)butanoate] | 3,926 | Lung (weak), |  |  |
| CCCCCCCCCCCCCCCCOc1cc(COC(=O)CCCN2CCN(C)CC2)cc(OCCCCCCCCCCCCCCCC)c1 [IAJD 75, 3,5-Bis(hexadecyloxy)benzyl 4-(4-methylpiperazin-1-yl)butanoate] | 68,572 | Lung (weak), |  |  |
| CCCCC(CC)COc1cc(COC(=O)CCCN2CCN(C)CC2)cc(OCC(CC)CCCC)c1 (stereo not drawn) [IAJD 76, 3,5-Bis((2-ethylhexyl)oxy)benzyl 4-(4-methylpiperazin-1-yl)butanoate] | 17 | Lung (weak), |  |  |
| CCCCCCCCCOc1cc(COC(=O)CCCN2CCN(C)CC2)cc(OCCCCCCCCC)c1 [IAJD 77, 3,5-Bis(nonyloxy)benzyl 4-(4-methylpiperazin-1-yl)butanoate] | 129 | Lung (weak), |  |  |
| CCCCCCCCCCCCOc1cc(COC(=O)CCCN2CCN(C)CC2)cc(OCCCCCCCCCCCC)c1OCCCCCCCCCCCC [IAJD 79, 3,4,5-Tris(dodecyloxy)benzyl 4-(4-methylpiperazin-1-yl)butanoate] | 27,615 |  | Lung (weak), |  |
| CCCCCCCCCCCCOCC(COCCCCCCCCCCCC)(COCCCCCCCCCCCC)COC(=O)CCCN1CCN(CCO)CC1 [IAJD 83, 3-(Dodecyloxy)-2,2-bis((dodecyloxy)methyl)propyl 4-(4-(2-hydroxyethyl)piperazin-1-yl)butanoate] | 68,691 | Lung (weak), |  |  |
| CCCCCCCCCCCCOc1cc(COC(=O)CCN2CCN(C)CC2)cc(OCCCCCCCCCCCC)c1 [IAJD 84, 3,5-Bis(dodecyloxy)benzyl 3-(4-methylpiperazin-1-yl)propanoate] | 205 | Lung (weak), |  |  |
| CCCCCCCOC(=O)CCCCOc1cc(COC(=O)CCCN2CCN(C)CC2)cc(OCCCCC(=O)OCCCCCCC)c1 [IAJD 85, Diheptyl 5,5′-((5-(((4-(4-methylpiperazin-1-yl)butanoyl)oxy)methyl)-1,3-phenylene)bis(oxy)) dipentanoate] | 47,369 | Lung (weak), |  |  |
| CCCCC(CC)COc1cc(COC(=O)CCCN2CCN(CCO)CC2)cc(OCC(CC)CCCC)c1 (stereo not drawn) [IAJD 87, 3,5-Bis((2-ethylhexyl)oxy)benzyl 4-(4-(2-hydroxyethyl)piperazin-1-yl)butanoate] | 33 |  | Lung (weak), |  |
| CCCCCCCCOc1cc(COC(=O)CCCN2CCN(C)CC2)cc(OCCCCCCCC)c1 [IAJD 88, 3,5-Bis(octyloxy)benzyl 4-(4-methylpiperazin-1-yl)butanoate] | 17 |  | Lung (weak), |  |
| CCCCCCCCOc1cc(COC(=O)CCCN2CCN(CCO)CC2)cc(OCCCCCCCC)c1 [IAJD 89] | 55 |  | Lung (weak), |  |
| CCCCCCCCCCOc1cc(COC(=O)CCCN2CCN(CCO)CC2)cc(OCCCCCCCCCC)c1 [IAJD 91, 3,5-Bis(decyloxy)benzyl 4-(4-(2-hydroxyethyl)piperazin-1-yl)butanoate] | 65,255 |  | Lung (weak), |  |
| Diheptyl 5,5′-((5-(((4-(4-methylpiperazin-1-yl)butanoyl)oxy)methyl)-1,3-phenylene)bis(oxy)) dipentanoate [IAJD 85] |  |  |  | Luminescence ([1]; Acetate buffer 10 mM pH 4.0, CIAJD 4 mg/mL, CLuc-mRNA 0.05 mg/mL, HEK293T, 125 ng/well): 734; Luminescence ([1]; Acetate buffer 10 mM pH 4.0, CIAJD 4 mg/mL, CLuc-mRNA 0.10 mg/mL, HEK293T, 125 ng/well): 2,498; Luminescence ([1]; Citrate buffer 10 mM pH 3.0, CIAJD 4 mg/mL, CLuc-mRNA 0.05 mg/mL, HEK293T, 125 ng/well): 1,176 |
